Measurements: PubChem BioAssay AID330 (DTP/NCI, 2004)
Several values for one entry are separate records, joined by “and”; a condition that tells them apart may be missing. Equal values may be shown once. Toxic doses and inconclusive results are not listed. The calls were made as follows: active = survival T/C of 150% or more; inactive = T/C below 125% in these data. Peptide text beside a SMILES is read from it. * marks the point of attachment. Bn = c1ccc(C*)cc1

Test system: P388 leukemia ip, CD2F1 mice, survival T/C
Assay: NCI In Vivo Anticancer Drug Screen. Data for tumor model P388 Leukemia (intraperitoneal) in CD2F1 (CDF1) mice
Conditions: endpoint: median survival time, higher = longer survival
Summary of the method: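 Mice carrying the transplanted tumor received test compound or vehicle. Survival was recorded in each group, and the value is the treated-group measurement divided by that of the vehicle-treated control group.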

[1] = dose: 25.0 mg/kg/injection, schedule: Q01DX001 (ip), vehicle: saline with Tween-80
[2] = dose: 60.0 mg/kg/injection, schedule: Q01DX005 (ip), vehicle: Klucel (hydroxypropylcellulose) (HPC)
[3] = dose: 120.0 mg/kg/injection, schedule: Q01DX005 (ip), vehicle: Klucel (hydroxypropylcellulose) (HPC)
[4] = dose: 240.0 mg/kg/injection, schedule: Q01DX005 (ip), vehicle: Klucel (hydroxypropylcellulose) (HPC)
[5] = dose: 50.0 mg/kg/injection, schedule: Q01DX005 (ip), vehicle: saline with Tween-80
[6] = dose: 100.0 mg/kg/injection, schedule: Q01DX005 (ip), vehicle: saline with Tween-80
[7] = dose: 200.0 mg/kg/injection, schedule: Q01DX005 (ip), vehicle: saline with Tween-80
[8] = dose: 60.0 mg/kg/injection, schedule: Q01DX005 (ip), vehicle: saline with Tween-80
[9] = dose: 120.0 mg/kg/injection, schedule: Q01DX005 (ip), vehicle: saline with Tween-80
[10] = dose: 25.0 mg/kg/injection, schedule: Q01DX009 (ip), vehicle: Klucel (hydroxypropylcellulose) (HPC)
[11] = dose: 50.0 mg/kg/injection, schedule: Q01DX009 (ip), vehicle: Klucel (hydroxypropylcellulose) (HPC)
[12] = dose: 50.0 mg/kg/injection, schedule: Q01DX009 (ip), vehicle: saline
[13] = dose: 100.0 mg/kg/injection, schedule: Q01DX009 (ip), vehicle: saline
[14] = dose: 100.0 mg/kg/injection, schedule: Q01DX009 (ip), vehicle: Klucel (hydroxypropylcellulose) (HPC)
[15] = dose: 200.0 mg/kg/injection, schedule: Q01DX009 (ip), vehicle: Klucel (hydroxypropylcellulose) (HPC)

Measured: T/C

O=NN(CCCl)C(=O)NC1CCCCC1
active: dose: 4.0 mg/kg/injection, schedule: Q01DX009 (ip), vehicle: saline with Tween-80 168 % of control | dose: 7.2 mg/kg/injection, schedule: Q04DX003 (ip), vehicle: saline + alcohol 204 % of control | dose: 8.0 mg/kg/injection, schedule: Q01DX009 (ip), vehicle: saline with Tween-80 218 % of control and 240 % of control | dose: 12.0 mg/kg/injection, schedule: Q04DX003 (ip), vehicle: carboxymethylcellulose (CMC) 154 % of control | dose: 12.0 mg/kg/injection, schedule: Q04DX003 (ip), vehicle: saline + alcohol 339 % of control | dose: 16.0 mg/kg/injection, schedule: Q01DX009 (ip), vehicle: saline with Tween-80 272 % of control | dose: 18.0 mg/kg/injection, schedule: Q04DX003 (ip), vehicle: carboxymethylcellulose (CMC) 190 % of control and 191 % of control | dose: 20.0 mg/kg/injection, schedule: Q04DX003 (ip), vehicle: saline + alcohol 412 % of control | dose: 27.0 mg/kg/injection, schedule: Q04DX003 (ip), vehicle: carboxymethylcellulose (CMC) 227 % of control and 243 % of control | dose: 40.0 mg/kg/injection, schedule: Q04DX003 (ip), vehicle: carboxymethylcellulose (CMC) 304 % of control and 538 % of control | dose: 64.0 mg/kg/injection, schedule: Q01DX001 (ip), vehicle: saline + alcohol 250 % of control and 265 % of control | dose: 128.0 mg/kg/injection, schedule: Q01DX001 (ip), vehicle: saline + alcohol 168 % of control
inactive: dose: 1.0 mg/kg/injection, schedule: Q01DX009 (ip), vehicle: saline with Tween-80 118 % of control | dose: 33.3 mg/kg/injection, schedule: Q04DX003 (ip), vehicle: saline + alcohol 119 % of control

CCC(=O)Nc1ccc(N)cc1
inactive: dose: 100.0 mg/kg/injection, schedule: Q04DX003 (ip), vehicle: saline 98 % of control | dose: 200.0 mg/kg/injection, schedule: Q04DX003 (ip), vehicle: saline 97 % of control

CC(C)NCc1ccccc1Sc1ccccc1CNC(C)C
inactive: [1] 99 % of control | dose: 25.0 mg/kg/injection, schedule: Q04DX002 (ip), vehicle: saline 103 % of control | dose: 50.0 mg/kg/injection, schedule: Q01DX001 (ip), vehicle: saline with Tween-80 98 % of control | dose: 50.0 mg/kg/injection, schedule: Q04DX002 (ip), vehicle: saline 103 % of control | dose: 100.0 mg/kg/injection, schedule: Q01DX001 (ip), vehicle: saline with Tween-80 98 % of control | dose: 100.0 mg/kg/injection, schedule: Q04DX002 (ip), vehicle: saline 103 % of control

CCOC(=O)Nc1cc2c(c(N)n1)N=C(c1ccc(C)c(C)c1)CN2
inactive: dose: 3.12 mg/kg/injection, schedule: Q01DX005 (ip), vehicle: saline with Tween-80 122 % of control | dose: 12.5 mg/kg/injection, schedule: Q01DX005 (ip), vehicle: saline with Tween-80 88 % of control

Cc1cc(C(F)(F)F)nc2nc3ccccc3n12
inactive: [2] 101 % of control | [3] 102 % of control | [4] 89 % of control

O=C1CS(=O)(=O)C(c2ccccc2)N1N1C(=O)CS(=O)(=O)C1c1ccccc1 (stereo not given)
inactive: [5] 104 % of control | [6] 104 % of control | [7] 92 % of control

CC(=O)Nc1ccc(S(=O)(=O)Nc2c(-c3ccccc3)[nH]c(C)c2C(C)=O)cc1
inactive: [8] 102 % of control | [9] 102 % of control | dose: 240.0 mg/kg/injection, schedule: Q01DX005 (ip), vehicle: saline with Tween-80 98 % of control

CCCCOc1ccc(C(=S)NC(=O)Nc2ccccc2)cc1
inactive: dose: 3.0 mg/kg/injection, schedule: Q01DX009 (ip), vehicle: saline with Tween-80 123 % of control | dose: 6.0 mg/kg/injection, schedule: Q01DX009 (ip), vehicle: saline with Tween-80 103 % of control | dose: 12.0 mg/kg/injection, schedule: Q01DX009 (ip), vehicle: saline with Tween-80 98 % of control

COC(=O)c1cc2cnc1CSCc1cnc(c(C(=O)OC)c1)CSC2
inactive: [5] 96 % of control | [6] 96 % of control | [7] 96 % of control

Nc1nnc(COc2ccc(Cl)cc2)n1N
inactive: [8] 107 % of control | [9] 108 % of control

COCCC1OCC(CCl)O1 (stereo not given)
inactive: [5] 104 % of control | [6] 99 % of control | [7] 108 % of control

CN(C)c1ccc(/C=C/c2ccnc3ccccc23)cc1N
inactive: dose: 6.25 mg/kg/injection, schedule: Q01DX009 (ip), vehicle: Klucel (hydroxypropylcellulose) (HPC) 98 % of control | dose: 12.5 mg/kg/injection, schedule: Q01DX009 (ip), vehicle: Klucel (hydroxypropylcellulose) (HPC) 93 % of control | [10] 90 % of control | [11] 109 % of control

C[C@]12CC[C@@H]3c4ccc(O)cc4CC[C@H]3[C@@H]1CC[C@@H]2NCCCCCCO
inactive: dose: 50.0 mg/kg/injection, schedule: Q01DX005 (ip), vehicle: Klucel (hydroxypropylcellulose) (HPC) 92 % of control | dose: 100.0 mg/kg/injection, schedule: Q01DX005 (ip), vehicle: Klucel (hydroxypropylcellulose) (HPC) 97 % of control

CCCCC1/C(=C/C(=O)c2ccccc2)Nc2ccccc2N1C(=O)c1ccccc1 (stereo not given)
inactive: [2] 97 % of control | [3] 89 % of control | [4] 90 % of control

NCC(=O)NCC(=O)NC(Cc1ccc(OCc2ccccc2)cc1)C(=O)NC(CCCN=C(N)N)C(=O)O (stereo not given) (H-GGY(Bn)R-OH; configuration not given here)
inactive: dose: 60.0 mg/kg/injection, schedule: Q01DX005 (ip), vehicle: saline 95 % of control | dose: 120.0 mg/kg/injection, schedule: Q01DX005 (ip), vehicle: saline 100 % of control | dose: 240.0 mg/kg/injection, schedule: Q01DX005 (ip), vehicle: saline 100 % of control

Clc1ccc(SCc2csc(-c3ccc(Cl)cc3)n2)cc1
inactive: [12] 104 % of control | [13] 111 % of control | dose: 200.0 mg/kg/injection, schedule: Q01DX009 (ip), vehicle: saline 104 % of control

CSc1nccnn1
inactive: dose: 6.25 mg/kg/injection, schedule: Q01DX009 (ip), vehicle: saline 109 % of control | dose: 12.5 mg/kg/injection, schedule: Q01DX009 (ip), vehicle: saline 115 % of control | dose: 25.0 mg/kg/injection, schedule: Q01DX009 (ip), vehicle: saline 108 % of control and 116 % of control | [12] 118 % of control | [13] 120 % of control

Cc1cc(CCN)c(C)c2c1oc1ccccc12
inactive: dose: 25.0 mg/kg/injection, schedule: Q04DX003 (ip), vehicle: Klucel (hydroxypropylcellulose) (HPC) 103 % of control | dose: 50.0 mg/kg/injection, schedule: Q04DX003 (ip), vehicle: Klucel (hydroxypropylcellulose) (HPC) 99 % of control | dose: 100.0 mg/kg/injection, schedule: Q04DX003 (ip), vehicle: Klucel (hydroxypropylcellulose) (HPC) 100 % of control | dose: 200.0 mg/kg/injection, schedule: Q04DX003 (ip), vehicle: Klucel (hydroxypropylcellulose) (HPC) 105 % of control

O=C1OCCOCCOCCOCCOCCOC(=O)C1c1ccccc1
inactive: [11] 102 % of control | [14] 101 % of control | [15] 100 % of control

CCCCCC(Cn1ccnc1)c1ccc(Cl)cc1Cl (stereo not given)
inactive: dose: 100.0 mg/kg/injection, schedule: Q04DX003 (ip), vehicle: saline with Tween-80 99 % of control | dose: 200.0 mg/kg/injection, schedule: Q04DX003 (ip), vehicle: saline with Tween-80 94 % of control | dose: 400.0 mg/kg/injection, schedule: Q04DX003 (ip), vehicle: saline with Tween-80 89 % of control

COC(=O)/C=C1\Sc2ccccc2NC1=O
inactive: dose: 50.0 mg/kg/injection, schedule: Q01DX009 (ip), vehicle: saline with Tween-80 96 % of control | dose: 100.0 mg/kg/injection, schedule: Q01DX009 (ip), vehicle: saline with Tween-80 96 % of control | dose: 200.0 mg/kg/injection, schedule: Q01DX009 (ip), vehicle: saline with Tween-80 94 % of control

Oc1c(C(Nc2cccc3cccnc23)c2ccccc2)ccc2cccnc12 (stereo not given)
inactive: [10] 110 % of control | [11] 106 % of control and 111 % of control | [14] 106 % of control and 107 % of control

CC1(C)CC2(C)OCCN2C(=S)N1 (stereo not given)
inactive: [11] 100 % of control | [14] 90 % of control | [15] 89 % of control

O=NN(CCCl)C(=O)N1CCCOC1=O
inactive: dose: 12.5 mg/kg/injection, schedule: Q01DX001 (ip), vehicle: saline with Tween-80 115 % of control and 121 % of control | [1] 116 % of control
